Reference: PubChem BioAssay AID651630 (Sanford-Burnham Center for Chemical Genomics, 2012)
Calls of active or inactive are those of the source.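 How the source made its calls: active means lipid-stain IC50 at or below a set limit, with nuclear-stain toxicity IC50 at least five times higher; inactive means the rest.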

Tests used:
[1] = tested on: TAG; assay: TAG lipid buildup inhibition with viability readout – cell-based, panel, Nile Red and DAPI fluorescence, H9c2, dose response (AID 651630); conditions: H9c2 cells, Nile Red TAG fluorescence, oleic acid;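 further: cells exposed to compound overnight before fixation and staining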
[2] = tested on: DAPI; assay: as above; conditions: H9c2 cells, DAPI nuclear fluorescence (cytotoxicity counter-readout), oleic acid

| Compound | IC50 ([1]; mean of runs) | IC50 ([1]; run 1) [µM] | IC50 ([1]; run 2) [µM] | IC50 cytotoxicity (DAPI nuclear signal decrease) ([2]; mean of runs) | IC50 cytotoxicity (DAPI nuclear signal decrease) ([2]; run 1) [µM] | IC50 cytotoxicity (DAPI nuclear signal decrease) ([2]; run 2) [µM] |
| --- | --- | --- | --- | --- | --- | --- |
| CCOCCC(=O)Nc1ccc2c(c1)c(=O)n(C)n2-c1ccc2ccccc2c1 | > 25 µM (inactive) | > 25 | > 25 | > 25 µM (inactive) | > 25 | > 25 |
| N=c1n(CCO)c2ccccc2n1CCOc1ccc(Cl)cc1Cl | > 25 µM (inactive) | > 25 | > 25 | 22.3 µM (inactive) | 21.4 | 23.1 |
| CCCCC(CC)C(=O)Nc1cc(C(=O)NCc2ccc(C)cc2)ccc1N1CCC2(CC1)CC(c1ccccc1)=NO2 (stereo not given) | 3.47 µM | 3.44 | 3.5 | – | > 25 | > 25 |
| O=c1cc(N2CCN(c3cccc(Cl)c3)CC2)[nH]c(=O)n1C1CCCCC1 | 3.47 µM | 5.5 | 1.44 | – | 18.2 | > 25 |
| CC(C)(C)NCCC(O)c1cc(C(F)(F)F)nc2c(C(F)(F)F)cccc12 (stereo not given) | 11.2 µM | 11.5 | 11 | > 25 µM (inactive) | > 25 | > 25 |
| CSC1=NC(C(Cl)(Cl)Cl)N=C(c2ccc(C)cc2)N1 (stereo not given) | > 25 µM (inactive) | > 25 | > 25 | > 25 µM (inactive) | > 25 | > 25 |
| CC1(C)CC(=O)C2=C(C1)Oc1nc3ccccc3cc1C2C(C#N)C#N (stereo not given) | 17.2 µM (inactive) | 16.5 | 17.8 | 12.7 µM (inactive) | 11.4 | 14 |
| Cc1c(C(=O)N2CC3(CC(c4cccc(NC(=O)CC(c5ccccc5)c5ccccc5)c4)=NO3)C[C@@H]2C(N)=O)cc([N+](=O)[O-])cc1[N+](=O)[O-] (stereo not given in full) | 12.2 µM | 11.8 | 12.6 | > 25 µM (inactive) | > 25 | > 25 |
| CCCCN(C)C(=O)c1ccc(Nc2nc(C(N)Cc3ccc(C(F)(F)F)cc3)cs2)nc1 (stereo not given) | > 25 µM (inactive) | > 25 | > 25 | > 25 µM (inactive) | > 25 | > 25 |
| CC(=O)Nc1cccc(-c2ccnc3c2CC(C)(C(=O)NCc2ccc(N(C)C)cc2)O3)c1 (stereo not given) | 15.1 µM (inactive) | 14.7 | 15.5 | > 25 µM (inactive) | > 25 | > 25 |
| CC(C)NC(=O)N(C)C[C@H]1Oc2cc(C#Cc3ccc(F)cc3)ccc2S(=O)(=O)N([C@H](C)CO)C[C@H]1C | 8.39 µM | 11 | 5.81 | > 25 µM (inactive) | > 25 | > 25 |
| COc1cc(C#Cc2c(-c3cncn3C)n(C)c3ccc(-c4ccc(OC)c(OC)c4)cc23)cc(OC)c1 | 8.76 µM | 8.47 | 9.05 | > 25 µM (inactive) | > 25 | > 25 |
| CCOc1ccc(CCNC(=O)CN2CCN(Cc3ccccc3F)C2=O)cc1OCC | 3.01 µM | 2.44 | 3.57 | – | > 25 | > 25 |
| O=[N+]([O-])c1cc(S(=O)(=O)Nc2cccc(Cl)c2)ccc1N/N=C/c1ccc(N2CCOCC2)cc1 | 13.6 µM | 12.5 | 14.7 | > 25 µM (inactive) | > 25 | > 25 |
| O=[N+]([O-])c1ccc(Nc2nc(N3CCOCC3)nc(N3CCOCC3)n2)cc1 | 21.4 µM (inactive) | 24.2 | 18.6 | > 25 µM (inactive) | > 25 | > 25 |
| CCN1CCN(c2ncc3c(n2)CC(c2cc(OC)c(OC)c(OC)c2)CC3=O)CC1 (stereo not given) | > 25 µM (inactive) | > 25 | > 25 | > 25 µM (inactive) | > 25 | > 25 |
| CN(Cc1ccc(Cl)cc1)C(=O)CCl | > 25 µM (inactive) | > 25 | > 25 | > 25 µM (inactive) | > 25 | > 25 |

| Compound | IC50 ([1]; mean of runs) | IC50 ([1]; run 1) [µM] | IC50 ([1]; run 2) [µM] | IC50 cytotoxicity (DAPI nuclear signal decrease) ([2]; mean of runs) | IC50 cytotoxicity (DAPI nuclear signal decrease) ([2]; run 1) [µM] | IC50 cytotoxicity (DAPI nuclear signal decrease) ([2]; run 2) [µM] |
| --- | --- | --- | --- | --- | --- | --- |
| CCCCCCSc1ccc([C@H]2N[C@@](CC(C)C)(C(=O)OC)[C@H]3C(=O)N(C)C(=O)[C@@H]23)cc1OC | > 25 µM (inactive) | > 25 | > 25 | > 25 µM (inactive) | > 25 | > 25 |
| CCOc1c(Br)cc(CNC2CCCCCCC2)cc1OC | > 25 µM (inactive) | > 25 | > 25 | 19.7 µM (inactive) | 18.8 | 20.6 |
| CC1(c2ccccc2)CC(C)(C)N(C(=O)c2cc([N+](=O)[O-])cc([N+](=O)[O-])c2)c2ccccc21 (stereo not given) | 9.21 µM | 10.4 | 7.99 | > 25 µM (inactive) | > 25 | > 25 |
| FC(F)Oc1ccc(-c2csc(NNC3=NCCCCC3)n2)cc1 | 2.55 µM | 2.29 | 2.81 | – | > 25 | > 25 |
| COc1ccc2[nH]c3c(c2c1)CCN1C(=O)C(CC(=O)NC/C=C(\C)CCC=C(C)C)C[C@H](C(=O)N(C(C)C)C(C)C)[C@@]31C (stereo not given in full) | 19.3 µM (inactive) | 19.5 | 19.1 | – | 19.8 | > 25 |
| COCCOC(=O)c1[nH]c2c(c1C)C(=O)CC(c1ccccc1)C2 (stereo not given) | > 25 µM (inactive) | > 25 | > 25 | > 25 µM (inactive) | > 25 | > 25 |
| Cc1nn(-c2ccc([N+](=O)[O-])cc2)c2c1C(c1ccc(OC(F)F)cc1)N1C(=N2)C(=O)Nc2ccccc21 (stereo not given) | 8.6 µM | 6.39 | 10.8 | > 25 µM (inactive) | > 25 | > 25 |
| CC(C)c1ccc(NC(=O)Nc2nc(C(N)COCc3ccccc3)cs2)cc1 (stereo not given) | – | > 25 | 14 | 20.2 µM (inactive) | 20.8 | 19.7 |
| Cc1nn2c(N3CCCC3)cc(C(C)C)nc2c1-c1ccccc1 | > 25 µM (inactive) | > 25 | > 25 | > 25 µM (inactive) | > 25 | > 25 |
| COc1ccc(C2NCCc3c2[nH]c2ccccc32)cc1CSc1nc2ccccc2s1 (stereo not given) | > 25 µM (inactive) | > 25 | > 25 | – | > 25 | 24.6 |
| CN1CCN(c2ccc([N+](=O)[O-])cc2C(=O)c2ccc(Cl)cc2)CC1 | > 25 µM (inactive) | > 25 | > 25 | > 25 µM (inactive) | > 25 | > 25 |
| CSc1nc(N(C)NC(=O)c2ccccc2)c2ccccc2n1 | 17.8 µM (inactive) | 22 | 13.6 | > 25 µM (inactive) | > 25 | > 25 |
| O=C(Nc1ccc(-c2csc(Nc3cccc(C(F)(F)F)c3)n2)cc1)c1cc([N+](=O)[O-])cc(C(F)(F)F)c1 | 10.9 µM | 10.8 | 11.1 | > 25 µM (inactive) | > 25 | > 25 |
| CN(C)CCCNC(=O)C[C@H]1C[C@H](C(=O)N2CCCCC2)[C@@]2(CCc3ccccc3)c3[nH]c4cc(-c5ccco5)ccc4c3CCN2C1=O | – | > 25 | 14.5 | > 25 µM (inactive) | > 25 | > 25 |
| CC1CCN(c2cc(N3CCC(C)CC3)c([N+](=O)[O-])cc2/C=C(\C#N)c2nn(-c3ccccc3)c(N)c2C#N)CC1 | > 25 µM (inactive) | > 25 | > 25 | > 25 µM (inactive) | > 25 | > 25 |
| Cc1cc(NC(=O)CSc2nc(-c3ccco3)cc(C(F)(F)F)n2)no1 | > 25 µM (inactive) | > 25 | > 25 | > 25 µM (inactive) | > 25 | > 25 |
